{
  "source": "paper PMC11352932",
  "about": "“Enhancing Maturation and Translatability of Human Pluripotent Stem Cell-Derived Cardiomyocytes through a Novel Medium Containing Acetyl-CoA Carboxylase 2 Inhibitor” (Cells, 2024)",
  "key": {"[1]": {"tested_on": "IK1, encoded by Kir channels", "assay": "Block of inward current in voltage-clamp", "type": "cell-based, human", "settings": "hiPSC-CMs cultured in maturation medium", "description": "All recordings were performed at RT.\nCells were superfused with an extracellular solution containing (mM) NaCl 136.8, KCl 4, HEPES 10, CaCl2 2, MgCl2 1, and Glucose 10 (pH adjusted to 7.2 with NaOH) for AP recording and K^+ current whole-cell recording. For whole-cell recording of Na^+ and Ca^2+ currents, the following extracellular solution was used (mM): NaCl 40, KCl 4, NMDG 96.8, HEPES 10, CaCl2 2, MgCl2 1, and Glucose 10 (pH adjusted to 7.2 with HCl); 1 mM of CdCl2 was also added to block L-type Ca^2+ currents when recording Na^+ currents.\nPatch pipettes contained (mM): KCl 150, HEPES 10, EGTA 10, and MgATP 2 (pH adjusted to 7.2 with KOH). For AP recording, perforated patch recording was used, and pipettes were backfilled with a solution containing 50 μg/mL gramicidin (diluted from a 50 mg/mL gramicidin DMSO stock solution). A stock solution of ivabradine was prepared with DMSO. All stock solutions were diluted ≥1:1000 in extracellular solution before use."}, "iPSC C32 CMs": {"tested_on": "iPSC C32 CMs", "assay": "Calcium imaging, Fluo-4, with and without isoproterenol", "type": "cell-based, human", "description": "(§1) iPSC C32-derived CMs were mounted on glass-bottom organ dishes (MatTek, P35G-1.5-14-c) coated with matrigel and incubated with Fluo-4 (Molecular Probes) at 5 µM for 30 min. Fluo-4 was washed in Tyrode’s solution for 30 min before imaging. Cells were placed in Tyrode’s solution containing CaCl2: 1.8 mM; NaCl: 130 mM; KCl: 5.4 mM; HEPES: 25 mM; MgCl2·6H2O: 0.5 mM; NaH2PO4: 0.4 mM; pH 7.4 at 37 °C for imaging. CMs were paced at 1 Hz and live imaging was recorded at 98 fps using a Nikon Eclipse with a Yokogawa CSU-X1 spinning disk and an EM-CCD Andor camera for high-speed acquisition. Individual whole-cell calcium transient intensities were analyzed in R software (V4.3.1). iCell CMs^2 were plated in 96-well CellCarrier Ultra Phenoplates (PerkinElmer) coated with fibronectin and stained with the EarlyTox^TM Cardiotoxicity kit (Molecular Devices, San Jose, CA, USA), following the manufacturer’s recommendations. Calcium transients were analyzed in the FDSS/µCell system (Hamatsu Photonics, Hamamatsu, Japan). Data were analyzed using FDSS Wavefront Analysis Software (V.1.2.2E). Isoproterenol was used at a final concentration of 1 µM. Calcium transients are calculated as ∆F/F0, with signal leveling and background normalization, where F0 is background fluorescence and F is fluorescence intensity. For each cell, amplitude (peak intensity), upstroke velocity, decay velocity, and peak width at 70% duration (PWD70%) were calculated.\nHiPSC-C32 CMs cultured in\nData are presented as mean\nE. Representative fluorescent images\nACC2i, and maturation medium. Scale bars: 20µm.\nFigure S6. Maturation medium enhances response to hERG blockers. AP recordings were obtained […]\nantiarrhythmic known to specifically block hERG."}, "hiPSC-CMs [2]": {"tested_on": "hiPSC-CMs", "assay": "In vitro hypertrophy model, ET-1 stimulation", "type": "cell-based, human", "settings": "10 nM ET-1, 48 h", "description": "After 2 weeks in either standard or maturation media, medium was switched to hypertrophy stimulation medium composed of RPMI no glucose supplemented with B27 plus insulin, 5.5 mM glucose and 10 nM endothelin-1 (ET-1, E7764). hPSC-CMs were cultured for 48 h in this medium before their use for further analyses.\nCell area, circularity index, and aspect ratio were determined with FIJI (ImageJ v.2.14.0) software using standard analysis plugins. For each condition, at least 60 cells were analyzed.\nRNA extraction was performed using the Agencourt RNAdvance Cell V2 kit (catalog no. A47942, Beckman Coulter, Bromma, Sweden) according to the manufacturer’s instructions. RNA quality was assessed using the Fragment Analyzer Standard Sensitivity RNA kit from Agilent Technologies, ensuring an RNA integrity number greater than 7. Library preparation for iCell cardiomyoctes^2 and Chips22 derived CMs was performed at the NGI (National Genomic Infrastructure, KTH, Stockholm, Sweden) using the Illumina TruSeq stranded mRNA library preparation kit. Clustering was conducted by ‘cBot’, and sequencing was performed on a NovaSeq 6000 (NovaSeq Control Software 1.6.0/RTA v3.4.4) with a 2 × 150 setup using the ‘NovaSeqXp’ workflow in the ‘S4’ flowcell. […] Sequenced reads were quality-controlled with the FastQC software and pre-processed with Trim Galore. Processed reads from iCell cardiomyocytes^2 and Chips22 were aligned to the reference genome GRCh37 with the STAR aligner, and Tophat2 with Bowties was used to map IPS C32 reads to GRCh38. Read counts for the genes were generated using the featureCounts library and normalized FPKM values calculated with StringTie. […]\nDifferences in gene expression were identified using the DESeq2 method. The analysis was based on read counts, which are required to assess the measurement precision accurately. […]"}, "hiPSC-CMs [3]": {"tested_on": "hiPSC-CMs", "assay": "hiPSC-CM viability by number of nuclei", "type": "cell-based, human", "settings": "number of nuclei after 7 days in culture", "description": "We initially investigated the impact of increasing concentrations of the ACC inhibitor CP640186 (hereafter referred to as ACC2i, given the predominant expression of ACC2 in CMs) on hiPSC-CM viability. […] Based on these initial results, a concentration of 5 uM was selected for further examination of the role of ACC2i in improving hiPSC-CM maturation.\nFigure S1. ACC2 inhibition enhances fatty acid oxidation. Increasing concentrations of ACC2 inhibition are toxic for hiPSC-CMs at concentrations exceeding 5uM. A. Schematic showing signaling cascade and mode of action of acetyl-CoA carboxylase (ACC). There are 2 ACC isoforms: ACC1 in cytosol that is dedicated to the rate limiting step of de novo lipogenesis, and ACC2 a mitochondrial membrane […]\npalmitoyltransferase (CPT-1), responsible for long-chain fatty-acid transport into mitochondria.\nCombined ACC1 and 2 inhibition is expected to reduce malonyl-CoA levels and de-novo lipogenesis, and to enhance CPT-1 activity and fatty acid oxidation (FAO). G-6-P (glucose-6-phosphate), TCA cycle (tricarboxylic acid cycle), ETC (electron transport chain). B. Impact of increasing doses of ACC2i on hiPSC-CMs viability assessed by number of nuclei after 7 days in culture.\nACC2i concentrations higher than 5 µm. Source of mitochondria image: Servier Medical Art. Statistical […]\n(1 picture or pasted object on this page, not shown here)"}, "hiPSC-CMs [4]": {"tested_on": "hiPSC-CMs", "assay": "Seahorse bioenergetics (Mito Stress test, etomoxir FAO)", "type": "cell-based, human", "settings": "maturation medium versus maturation medium without ACC2i", "description": "The Seahorse XF96 extracellular flux analyzer (Agilent, Santa Clara, CA, USA) was used to assess mitochondrial function. Seahorse plates were coated with fibronectin, and hiPSC-CMs were seeded onto the plates at a density of 30,000 cells per well. Culture medium was exchanged for Agilent Seahorse XF RPMI Basal Medium supplemented with 5.5 mM glucose, 2 mM glutamine, 150 µM sodium pyruvate, 100 µM Palmitate/BSA, and 5 mM Hepes, 1 h before the assay and for the duration of the measurement. For the Mito Stress test, mitochondria inhibitors were injected during the measurements as follows: Oligomycin (2 µM), 2.4-Dinitrophenol (DNP, 225 µM), rotenone, and antimycin A (both at 1.11 µM). The oxygen consumption rate (OCR) and extracellular acidification rate (ECAR) values were normalized to the number of nuclei per well quantified by Hoechst staining and fluorescence imaging. The baseline OCR was defined as the average values measured from time points 2 to 4 during the experiments subtracting the non-mitochondrial oxygen consumption rate determined as the minimum rate measurement after rotenone/antimycin A injection. Spare respiratory capacity was calculated as the difference between uncoupler DNP and baseline OCR values. ATP production was calculated by subtracting the minimum rate measurement after Oligomycin injection from the last rate measurement before Oligomycin injection. Proton leak was calculated by subtracting non-mitochondrial OCR from the minimum rate measurement after Oligomycin injection. Lastly, oxidation of exogenous FA was measured after injection of 50 µM Etomoxir. OCR due to FA oxidation was determined by subtracting the minimum rate measurement after Etomoxir injection from the last rate measurement before Oligomycin injection. All wells with a basal respiratory rate below 40 pmol/min were excluded from analysis."}, "iCell CMs^2": {"tested_on": "iCell CMs^2", "assay": "Calcium transients, EarlyTox dye, FDSS", "type": "cell-based, human", "settings": "maturation medium vs maturation medium without ACC2i", "description": "as §1"}, "ACC1": {"tested_on": "ACC1", "design": "method as in PMID 12842871", "settings": "ACC1 isoform; cited from earlier work"}, "ACC2": {"tested_on": "ACC2", "design": "method as in PMID 12842871", "settings": "ACC2 isoform; cited from earlier work"}, "[5]": {"settings": "1 µM isoproterenol, maturation medium compared to maturation medium without ACC2i"}},
  "note": "Positions of bridges follow the written chain, without caps; N, C: chain ends. No end group written: not given here.",
  "data": [
    {"compound": "[Ba+2].[Cl-].[Cl-]", "note": "[Ba^2+, BaCl2]", "values": [
      {"measurement": "block of inward current", "setting": "[1]; 100 µM Ba2+", "result": "> 90", "unit": "%"}
    ]},
    {"compound": "CC(C)NCC(O)c1ccc(O)c(O)c1", "note": "(centres unmarked) [isoproterenol]", "values": [
      {"measurement": "increase in amplitude upon stimulation", "setting": "iPSC C32 CMs; [5]", "result": "significantly higher increase"},
      {"measurement": "increase in beat rate upon stimulation", "setting": "iPSC C32 CMs; [5]", "result": "significantly higher increase"}
    ]},
    {"compound": "endothelin-1 (CSCSSLMDKECVYFCHLDIIW; disulfide 1-15, 3-11; ends not checked; UniProt P05305 53-73, looked up) [ET-1]", "values": [
      {"measurement": "structural changes", "setting": "hiPSC-CMs [2]; cells cultured in standard medium", "result": "no significant structural changes"},
      {"measurement": "cell area", "setting": "hiPSC-CMs [2]; maturation medium group", "result": "trend towards increased"},
      {"measurement": "length-to-width ratio", "setting": "hiPSC-CMs [2]; maturation medium group", "result": "significant decrease"}
    ]},
    {"compound": "O=C(c1c2ccccc2cc2ccccc12)N1CCC(N2CCC[C@@H](C(=O)N3CCOCC3)C2)CC1", "note": "[CP-640186]", "values": [
      {"measurement": "ACC2i concentration resulting in a decrease in the number of nuclei (potential cardiac toxicity)", "setting": "hiPSC-CMs [3]", "result": "exceeding 5 uM"},
      {"measurement": "FAO reliance (change in basal respiration upon etomoxir)", "setting": "hiPSC-CMs [4]", "result": "significantly increased"},
      {"measurement": "increase in reserve capacity", "setting": "hiPSC-CMs [4]; 5 µM ACC2i", "result": 1.7, "unit": "fold"},
      {"measurement": "reduction in energy dissipation through proton leak", "setting": "hiPSC-CMs [4]; 5 µM ACC2i", "result": 2.5, "unit": "fold"},
      {"measurement": "calcium transient duration", "setting": "iCell CMs^2", "result": "reduction"},
      {"measurement": "calcium uptake and decay kinetics", "setting": "iCell CMs^2", "result": "significant enhancement"},
      {"measurement": "transient calcium amplitude", "setting": "iCell CMs^2", "result": "no change"},
      {"measurement": "calcium transient amplitude and kinetics", "setting": "iPSC C32 CMs; with ACC2i vs without", "result": "significantly improved"},
      {"measurement": "IC50", "setting": "ACC1", "result": "~55", "unit": "nM"},
      {"measurement": "IC50", "setting": "ACC2", "result": "~55", "unit": "nM"}
    ]},
    {"compound": "COc1cc2c(cc1OC)CC(=O)N(CCCN(C)C[C@H]1Cc3cc(OC)c(OC)cc31)CC2", "note": "[ivabradine]", "values": [
      {"measurement": "block of inward current", "setting": "[1]; 10 µM ivabradine", "result": "~ 5%"}
    ]}
  ]
}
